Measured values: the NIST ThermoML archive (doi:10.1016/j.tca.2012.01.013)

Legend:
[1] = xn = mol fraction of the nth substance listed; settings: 101 kPa, Liquid, Vibrating tube method
[2] = refractive index (Na D-line) (dimensionless); xn = mol fraction of the nth substance listed; settings: 101 kPa, Liquid, Standard Abbe refractometry

COC(=O)CCCCC(=O)OC [dimethyl 1,6-hexanedioate] + CCC(C)=O
Settings	mass density, [1] [kg/m3]	refractive index, [2]
288.15 K, x1 = 0.1002	855.132	1.3909
288.15 K, x1 = 0.2002	893.327	1.39827
288.15 K, x1 = 0.3002	926.063	1.40453
288.15 K, x1 = 0.4004	954.409	1.40995
288.15 K, x1 = 0.5001	979.016	1.41452
288.15 K, x1 = 0.5999	1000.72	1.41853
288.15 K, x1 = 0.6998	1020.03	1.42204
288.15 K, x1 = 0.7994	1037.28	1.42515
288.15 K, x1 = 0.8997	1052.86	1.42797
288.15 K, x1 = 1	1066.79	1.4305
293.15 K, x1 = 0.1002	849.982	1.38847
293.15 K, x1 = 0.2002	888.227	1.39586
293.15 K, x1 = 0.3002	921.006	1.40221
293.15 K, x1 = 0.4004	949.39	1.40768
293.15 K, x1 = 0.5001	974.03	1.41229
293.15 K, x1 = 0.5999	995.763	1.41634
293.15 K, x1 = 0.6998	1015.1	1.41989
293.15 K, x1 = 0.7994	1032.37	1.42303
293.15 K, x1 = 0.8997	1047.98	1.42587
293.15 K, x1 = 1	1061.93	1.42842
298.15 K, x1 = 0.1002	844.812	1.38601
298.15 K, x1 = 0.2002	883.111	1.39346
298.15 K, x1 = 0.3002	915.937	1.39988
298.15 K, x1 = 0.4004	944.361	1.4054
298.15 K, x1 = 0.5001	969.035	1.41005
298.15 K, x1 = 0.5999	990.798	1.41416
298.15 K, x1 = 0.6998	1010.17	1.41774
298.15 K, x1 = 0.7994	1027.45	1.42091
298.15 K, x1 = 0.8997	1043.08	1.42378
298.15 K, x1 = 1	1057.06	1.42636
303.15 K, x1 = 0.1002	839.62	1.38348
303.15 K, x1 = 0.2002	877.976	1.39104
303.15 K, x1 = 0.3002	910.852	1.39751
303.15 K, x1 = 0.4004	939.32	1.4031
303.15 K, x1 = 0.5001	964.032	1.4078
303.15 K, x1 = 0.5999	985.828	1.41196
303.15 K, x1 = 0.6998	1005.23	1.41557
303.15 K, x1 = 0.7994	1022.54	1.41878
303.15 K, x1 = 0.8997	1038.19	1.42168
303.15 K, x1 = 1	1052.18	1.42429
308.15 K, x1 = 0.1002	834.401	1.38097
308.15 K, x1 = 0.2002	872.82	1.38859
308.15 K, x1 = 0.3002	905.75	1.39515
308.15 K, x1 = 0.4004	934.263	1.40079
308.15 K, x1 = 0.5001	959.015	1.40555
308.15 K, x1 = 0.5999	980.845	1.40974
308.15 K, x1 = 0.6998	1000.27	1.41341
308.15 K, x1 = 0.7994	1017.61	1.41667
308.15 K, x1 = 0.8997	1033.29	1.41961
308.15 K, x1 = 1	1047.31	1.42222
313.15 K, x1 = 0.1002	829.151	1.37832
313.15 K, x1 = 0.2002	867.64	1.38611
313.15 K, x1 = 0.3002	900.629	1.39277
313.15 K, x1 = 0.4004	929.193	1.39848
313.15 K, x1 = 0.5001	953.987	1.4033
313.15 K, x1 = 0.5999	975.853	1.40756
313.15 K, x1 = 0.6998	995.312	1.41126
313.15 K, x1 = 0.7994	1012.68	1.41455
313.15 K, x1 = 0.8997	1028.38	1.41751
313.15 K, x1 = 1	1042.43	1.42017
318.15 K, x1 = 0.1002	823.875	1.37568
318.15 K, x1 = 0.2002	862.438	1.38355
318.15 K, x1 = 0.3002	895.489	1.39031
318.15 K, x1 = 0.4004	924.104	1.39611
318.15 K, x1 = 0.5001	948.941	1.401
318.15 K, x1 = 0.5999	970.845	1.40532
318.15 K, x1 = 0.6998	990.336	1.40909
318.15 K, x1 = 0.7994	1007.74	1.41243
318.15 K, x1 = 0.8997	1023.47	1.41544
318.15 K, x1 = 1	1037.54	1.41819
323.15 K, x1 = 0.1002	818.564	1.37305
323.15 K, x1 = 0.2002	857.21	1.38103
323.15 K, x1 = 0.3002	890.33	1.38784
323.15 K, x1 = 0.4004	919.003	1.39374
323.15 K, x1 = 0.5001	943.887	1.39869
323.15 K, x1 = 0.5999	965.832	1.40307
323.15 K, x1 = 0.6998	985.36	1.40691
323.15 K, x1 = 0.7994	1002.79	1.4103
323.15 K, x1 = 0.8997	1018.55	1.41336
323.15 K, x1 = 1	1032.64	1.41614

COC(=O)CCCCC(=O)OC [dimethyl 1,6-hexanedioate] + CCC(C)O
Settings	mass density, [1] [kg/m3]	refractive index, [2]
288.15 K, x1 = 0.1	851.006	1.40371
288.15 K, x1 = 0.2001	886.929	1.40787
288.15 K, x1 = 0.3	918.373	1.41161
288.15 K, x1 = 0.4	946.216	1.41507
288.15 K, x1 = 0.5003	971.377	1.41815
288.15 K, x1 = 0.6	994.171	1.42105
288.15 K, x1 = 0.6999	1014.77	1.42368
288.15 K, x1 = 0.8005	1033.71	1.42612
288.15 K, x1 = 0.8999	1050.86	1.42837
288.15 K, x1 = 1	1066.79	1.4305
293.15 K, x1 = 0.1	846.719	1.40153
293.15 K, x1 = 0.2001	882.468	1.4057
293.15 K, x1 = 0.3	913.786	1.40945
293.15 K, x1 = 0.4	941.538	1.4129
293.15 K, x1 = 0.5003	966.636	1.41602
293.15 K, x1 = 0.6	989.387	1.41891
293.15 K, x1 = 0.6999	1009.96	1.42156
293.15 K, x1 = 0.8005	1028.88	1.42403
293.15 K, x1 = 0.8999	1046.01	1.42628
293.15 K, x1 = 1	1061.93	1.42842
298.15 K, x1 = 0.1	842.377	1.39933
298.15 K, x1 = 0.2001	877.96	1.40348
298.15 K, x1 = 0.3	909.164	1.40724
298.15 K, x1 = 0.4	936.838	1.41071
298.15 K, x1 = 0.5003	961.876	1.41385
298.15 K, x1 = 0.6	984.59	1.41676
298.15 K, x1 = 0.6999	1005.13	1.41943
298.15 K, x1 = 0.8005	1024.03	1.42191
298.15 K, x1 = 0.8999	1041.15	1.4242
298.15 K, x1 = 1	1057.06	1.42636
303.15 K, x1 = 0.1	837.975	1.39709
303.15 K, x1 = 0.2001	873.411	1.40124
303.15 K, x1 = 0.3	904.511	1.405
303.15 K, x1 = 0.4	932.113	1.40851
303.15 K, x1 = 0.5003	957.1	1.41165
303.15 K, x1 = 0.6	979.781	1.4146
303.15 K, x1 = 0.6999	1000.3	1.4173
303.15 K, x1 = 0.8005	1019.19	1.41981
303.15 K, x1 = 0.8999	1036.29	1.42211
303.15 K, x1 = 1	1052.18	1.42429
308.15 K, x1 = 0.1	833.506	1.39479
308.15 K, x1 = 0.2001	868.81	1.39899
308.15 K, x1 = 0.3	899.82	1.40278
308.15 K, x1 = 0.4	927.355	1.4063
308.15 K, x1 = 0.5003	952.301	1.40948
308.15 K, x1 = 0.6	974.955	1.41244
308.15 K, x1 = 0.6999	995.457	1.41515
308.15 K, x1 = 0.8005	1014.33	1.4177
308.15 K, x1 = 0.8999	1031.43	1.42004
308.15 K, x1 = 1	1047.31	1.42222
313.15 K, x1 = 0.1	828.965	1.39245
313.15 K, x1 = 0.2001	864.16	1.39669
313.15 K, x1 = 0.3	895.087	1.40049
313.15 K, x1 = 0.4	922.569	1.40404
313.15 K, x1 = 0.5003	947.474	1.40726
313.15 K, x1 = 0.6	970.109	1.41026
313.15 K, x1 = 0.6999	990.598	1.41301
313.15 K, x1 = 0.8005	1009.47	1.41557
313.15 K, x1 = 0.8999	1026.55	1.41795
313.15 K, x1 = 1	1042.43	1.42017
318.15 K, x1 = 0.1	824.35	1.39013
318.15 K, x1 = 0.2001	859.451	1.39438
318.15 K, x1 = 0.3	890.312	1.39825
318.15 K, x1 = 0.4	917.75	1.4018
318.15 K, x1 = 0.5003	942.626	1.40503
318.15 K, x1 = 0.6	965.245	1.40808
318.15 K, x1 = 0.6999	985.726	1.41088
318.15 K, x1 = 0.8005	1004.59	1.41348
318.15 K, x1 = 0.8999	1021.67	1.41588
318.15 K, x1 = 1	1037.54	1.41819
323.15 K, x1 = 0.1	819.659	1.38776
323.15 K, x1 = 0.2001	854.686	1.39207
323.15 K, x1 = 0.3	885.493	1.39597
323.15 K, x1 = 0.4	912.894	1.39955
323.15 K, x1 = 0.5003	937.752	1.40283
323.15 K, x1 = 0.6	960.363	1.40592
323.15 K, x1 = 0.6999	980.838	1.40875
323.15 K, x1 = 0.8005	999.701	1.41138
323.15 K, x1 = 0.8999	1016.78	1.41382
323.15 K, x1 = 1	1032.64	1.41614
